Results from patent US20260364098A1, “HETEROARYL COMPOUNDS AS ENDOCANNABINOID SYSTEM MODULATORS AND USES THEREOF” (Northeastern University, priority 2023, published 2026).
Where two headings read alike, the source gives them in different places.

Legend:
human MGL (hMGL) = molecular target: T1, human MGL (hMGL) (Homo sapiens, UniProt Q99685); experiment: Fluorescent assay for human MGL inhibition; type: biochemical; conditions: for hMGL inhibition: at concentrations up to 10 μM, known commercial ligands
T1 construct: made in house; host or cells: E. coli (lysate)
T1 sequence (Q99685 1-303): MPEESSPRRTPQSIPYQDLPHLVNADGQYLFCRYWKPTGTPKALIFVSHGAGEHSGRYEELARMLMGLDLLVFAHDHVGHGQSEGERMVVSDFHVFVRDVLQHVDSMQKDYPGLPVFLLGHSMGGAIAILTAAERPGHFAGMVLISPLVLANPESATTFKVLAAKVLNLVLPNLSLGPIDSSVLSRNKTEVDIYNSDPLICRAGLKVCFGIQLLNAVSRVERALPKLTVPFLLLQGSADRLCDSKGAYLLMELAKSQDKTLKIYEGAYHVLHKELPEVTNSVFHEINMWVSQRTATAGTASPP
Procedure: Fluorescent assay protocol for human MGL. Compound inhibition of hMGL activity was assessed by a fluorometric assay. The assay was carried out in a 96-well plate format and hMGL was monitored by the hydrolysis of the substrate […] or the substrate valeroyl-7-hydroxy-6-methoxy-4-methylcoumarin ester (VHMMCE) to form the fluorescent product, coumarin. Briefly, various concentrations of each compound were preincubated with hMGL (175 ng of total protein in E. coli lysate containing hMGL) for 15 minutes at room temperature. Upon the addition of the substrate, the reaction was incubated at […] for 120 minutes; fluorescence readings were taken every 15 minutes at 360 nm/460 nm (2excitation/λmission) using a Synergy HT Plate Reader (Bio-Tek, Winooski, Vt.). Under the incubation conditions, negligible substrate hydrolysis was observed. External standards were used to convert relative fluorescence units to the amount of 4-methylcoumarin formed. hMGL assays were performed in triplicate for each inhibitor concentration, and IC50 values were determined using Prizm software (FIGS. 1A-1G).

hCB1 receptors = molecular target: T2, hCB1 receptors (Homo sapiens, UniProt P21554); experiment: CB1 cAMP assay (inhibition of forskolin-stimulated cAMP accumulation); type: cell-based; conditions: for EC50: EC50 of 2-AG + Compound (1 μM), 2-AG in presence of 1 μM compound, forskolin 2 μM, HEK293 and/or CHO hCB1
T2 construct: expressed in transfected cells
Procedure: CB1 cAMP assays. Compounds are evaluated for their ability to modulate the actions of orthosteric ligands at CB1 receptor sites. HEK293 and/or CHO cells stably expressing hCB1 receptors were used for the studies. The CAMP assay was carried out using Perkin Elmer's Lance Ultra cAMP kit following the protocol as described in J Biomol Screen 1999, 4, (6), 303-308. The assays are carried out in a 384-well format using 1000-1500 cells/well. The cells are harvested with non-enzymatic cell dissociation reagent Versene, washed once with Hanks' Balanced Salt Solution (HBSS), and resuspended in the stimulation buffer. […] After 30 minutes of stimulation at room temperature, the Eu-CAMP tracer working solution (5 μL) and Ulight-anti-cAMP working solution (5 μL) are added to the plate and incubated at room temperature for 60 minutes. The data are collected via PerkinElmer Envision plate reader. The EC50 values are determined by nonlinear regression analysis using GraphPad Prism software (FIGS. 2A-2H).

human CB1 (hCB1) = human CB1 (hCB1) (Homo sapiens, UniProt P21554); experiment: Competition binding assay, [3H]CP55,940 displacement, hCB1 HEK293 membranes; conditions: up to 100 nM; [3H]CP55,940 0.7 nM; 37 °C, 60 min
Procedure: Cell membrane preparation. Fresh or frozen HEK293 cell pellets (2×10^8 cells expressing human CB1 (hCB1) or rat CB1 (rCB1)) were resuspended in 5 ml of TME [25 mM Tris, 5 mM MgCl2, 1 mM EDTA pH 7.4] supplemented with 0.5% protease inhibitor cocktail (Sigma, St Louis, MO, USA). Cells were lysed under nitrogen cavitation for 30 min at 1000 psi on ice, centrifuged at 1000 g for 10 min, and the supernatant was collected. The pellet was washed three times with 10 ml of TME containing protease inhibitors and the combined supernatant was centrifuged at 100,000 g for 45 min at 4 °C. The resultant membrane pellet was used immediately or stored at −80 °C. Protein concentration for the resulting membrane fraction was obtained using Bradford Assay.
Competition Binding Assay. Competition binding assays were performed in a 96-well format. Assays were carried out using [3H] CP55,940 and Tris binding buffer (50 mM Tris-HCl, 50 mM Tris-base, 0.1% BSA, pH 7.4), up to a total assay volume of 500 μL. The concentration of [^3H]CP55,940 used in our displacement assays was 0.7 nM. […] Radioactivity was quantified by liquid scintillation spectrometry. […] Ki values were determined by fitting the data to non-linear regression curve using Graph Pad Prism software.

[1] = Kinetic aqueous solubility by laser-based nephelometry; type: physicochemical; conditions: PBS buffer pH 7.4, 120 min, room temperature; relative to ZCZ011
Procedure: Aqueous solubility assays. The kinetic aqueous solubility of the compounds is determined using laser-based nephelometry. Linear serial dilutions of each compound are prepared in PBS buffer (pH=7.4) from DMSO stock solution (10 mM) in a 384-well plate. The compound solutions are mixed and incubated for 120 minutes at room temperature, followed by approximating the precipitation points for each compound using light scattering (laser-based BMG Labtech NEPHELOstar PLUS microplate nephelometer). In some aspects, the final solutions may contain 0 mM, 55 mM, 135 mM, or 500 mM of mannitol.

[2] = hMGL in E. coli lysate, 15 min preincubation, AHMMCE or VHMMCE substrate, read-out: MGL inhibition IC50

T2 sequence (P21554 whole entry): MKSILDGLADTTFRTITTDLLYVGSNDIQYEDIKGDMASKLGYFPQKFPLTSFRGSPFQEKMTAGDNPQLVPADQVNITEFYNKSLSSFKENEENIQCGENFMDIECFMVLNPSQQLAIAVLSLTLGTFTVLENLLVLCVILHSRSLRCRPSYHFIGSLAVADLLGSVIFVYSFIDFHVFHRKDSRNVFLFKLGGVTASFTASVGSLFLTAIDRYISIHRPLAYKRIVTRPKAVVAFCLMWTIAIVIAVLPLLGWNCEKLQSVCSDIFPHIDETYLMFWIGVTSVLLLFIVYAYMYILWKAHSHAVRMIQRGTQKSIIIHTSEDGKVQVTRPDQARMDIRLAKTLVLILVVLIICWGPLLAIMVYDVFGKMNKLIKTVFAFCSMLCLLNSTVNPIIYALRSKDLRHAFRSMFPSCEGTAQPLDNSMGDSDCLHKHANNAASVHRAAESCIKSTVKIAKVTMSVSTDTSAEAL
Sequence of human CB1 (hCB1) (P21554 whole entry): as above

O=[N+]([O-])CC(c1ccccc1)c1c(-c2ccccc2)[nH]c2ccccc12 (stereo not drawn) [GAT211, 3-(2-nitro-1-phenylethyl)-2-phenyl-1H-indole, reference compound]
hMGL inhibition (human MGL (hMGL)): did not show any hMGL inhibition at concentrations up to 10 μM

O=[N+]([O-])C[C@H](c1ccc(B(O)O)cc1)c1c(-c2ccccc2)[nH]c2ccccc12 (single isomer, unassigned) [Compound 2]
EC50 (hCB1 receptors): 51.3 nM | IC50 (human MGL (hMGL); [2]): 271 nM

O=[N+]([O-])CC(c1ccc(B(O)O)cc1)c1c(-c2ccc(N=C=S)cc2)[nH]c2ccccc12 (stereo not drawn) [Compound 6, (4-(1-(2-(4-isothiocyanatophenyl)-1H-indol-3-yl)-2-nitroethyl)phenyl)boronic acid]
EC50 (hCB1 receptors): 57.2 nM

O=[N+]([O-])CC(c1cccc(B(O)O)c1)c1c(-c2ccccc2)[nH]c2ccccc12 (stereo not drawn) [Compound 4, (3-(2-nitro-1-(2-phenyl-1H-indol-3-yl)ethyl)phenyl)boronic acid]
EC50 (hCB1 receptors): 40.8 nM | competition with CP-55,940 (human CB1 (hCB1)): do not compete with CP-55,940 | IC50 (human MGL (hMGL); [2]): 979 nM

O=[N+]([O-])CC(c1ccccc1)c1c(-c2ccc(S(=O)(=O)F)cc2)[nH]c2ccccc12 (stereo not drawn) [Compound 9, 4-(3-(2-nitro-1-phenylethyl)-1H-indol-2-yl)benzenesulfonyl fluoride]
IC50 (human MGL (hMGL)): 32.3 nM

O=[N+]([O-])CC(c1ccc(N=C=S)cc1)c1c(-c2ccccc2)[nH]c2ccccc12 (stereo not drawn) [Compound 10, 3-(1-(4-isothiocyanatophenyl)-2-nitroethyl)-2-phenyl-1H-indole]
IC50 (human MGL (hMGL); [2]): 1160 nM

O=[N+]([O-])CC(c1ccccc1)c1c(-c2ccccc2)[nH]c2cc(B(O)O)ccc12 (stereo not drawn) [Compound 8, (3-(2-nitro-1-phenylethyl)-2-phenyl-1H-indol-6-yl)boronic acid]
IC50 (human MGL (hMGL); [2]): 46.8 nM

Cc1ccc2c(C(C[N+](=O)[O-])c3cccs3)c(-c3ccccc3)[nH]c2c1 (stereo not drawn) [ZCZ011, 6-methyl-3-(2-nitro-1-(thiophen-2-yl)ethyl)-2-phenyl-1H-indole, reference compound]
hMGL inhibition (human MGL (hMGL)): did not show any hMGL inhibition at concentrations up to 10 μM

O=[N+]([O-])CC(c1ccc(B(O)O)cc1)c1c(-c2ccccc2)[nH]c2ccccc12 (stereo not drawn) [Compound 1, (4-(2-nitro-1-(2-phenyl-1H-indol-3-yl)ethyl)phenyl)boronic acid]
EC50 (hCB1 receptors): 102 nM | aqueous solubility compared to ZCZ011 [1]: > 100 fold | competition with CP-55,940 (human CB1 (hCB1)): do not compete with CP-55,940 | IC50 (human MGL (hMGL); [2]): 63.5 nM

O=[N+]([O-])CC(c1ccccc1)c1c(-c2ccc(B(O)O)cc2)[nH]c2ccccc12 (stereo not drawn) [Compound 5, (4-(3-(2-nitro-1-phenylethyl)-1H-indol-2-yl)phenyl)boronic acid]
EC50 (hCB1 receptors): 57 nM

O=[N+]([O-])C[C@@H](c1ccc(B(O)O)cc1)c1c(-c2ccccc2)[nH]c2ccccc12 (single isomer, unassigned) [Compound 3]
EC50 (hCB1 receptors): 37.5 nM | allosteric modulation of 2-AG and CP-55,940 at CB1 (hCB1 receptors; in words): positive allosteric modulator of both 2-AG and CP-55,940 | increase of potency of 2-AG at CB1 (hCB1 receptors; orthosteric ligand 2-AG, positive allosteric modulator): ~ 2 fold | increase of potency of CP-55,940 at CB1 (hCB1 receptors; orthosteric ligand CP-55,940, positive allosteric modulator): ~ 2 fold | IC50 (human MGL (hMGL); [2]): 58.8 nM
